Source: ChEMBL document CHEMBL1151464 (2008)

What was measured:
Assay type in all cases: functional
Acinetobacter baumannii [1] = experiment: Antibacterial activity against Acinetobacter baumannii isolate 929 after 24 hrs by CLSI microdilution method
Acinetobacter baumannii [2] = experiment: Antibacterial activity against Acinetobacter baumannii isolate 930 after 24 hrs by CLSI microdilution method
Acinetobacter baumannii [3] = experiment: Antibacterial activity against Acinetobacter baumannii isolate 932 expressing OXA-24 and OXA-51 beta-lactamase after 24 hrs by CLSI microdilution method
Acinetobacter baumannii [4] = experiment: Antibacterial activity against Acinetobacter baumannii isolate 934 after 24 hrs by CLSI microdilution method
Acinetobacter baumannii [5] = experiment: Antibacterial activity against Acinetobacter baumannii isolate 931 after 24 hrs by CLSI microdilution method
Acinetobacter baumannii [6] = experiment: Antibacterial activity against Acinetobacter baumannii isolate 920 after 24 hrs by CLSI microdilution method
Acinetobacter baumannii [7] = experiment: Antibacterial activity against Acinetobacter baumannii isolate 921 after 24 hrs by CLSI microdilution method
Pseudomonas aeruginosa [8] = experiment: Antibacterial activity against Pseudomonas aeruginosa isolate 323 after 24 hrs by CLSI microdilution method
Pseudomonas aeruginosa [9] = experiment: Antibacterial activity against Pseudomonas aeruginosa isolate 324 after 24 hrs by CLSI microdilution method
Pseudomonas aeruginosa [10] = experiment: Antibacterial activity against Pseudomonas aeruginosa isolate 326 after 24 hrs by CLSI microdilution method
Pseudomonas aeruginosa [11] = experiment: Antibacterial activity against Pseudomonas aeruginosa isolate 327 after 24 hrs by CLSI microdilution method
Pseudomonas aeruginosa [12] = experiment: Antibacterial activity against Pseudomonas aeruginosa isolate 328 after 24 hrs by CLSI microdilution method
Pseudomonas aeruginosa [13] = experiment: Antibacterial activity against Pseudomonas aeruginosa isolate 329 after 24 hrs by CLSI microdilution method
Pseudomonas aeruginosa [14] = experiment: Antibacterial activity against Pseudomonas aeruginosa isolate 331 after 24 hrs by CLSI microdilution method
Pseudomonas aeruginosa [15] = experiment: Antibacterial activity against Pseudomonas aeruginosa isolate 332 after 24 hrs by CLSI microdilution method
Pseudomonas aeruginosa [16] = experiment: Antibacterial activity against Pseudomonas aeruginosa isolate 337 after 24 hrs by CLSI microdilution method
Pseudomonas aeruginosa [17] = experiment: Antibacterial activity against Pseudomonas aeruginosa isolate 339 after 24 hrs by CLSI microdilution method
Pseudomonas aeruginosa [18] = experiment: Antibacterial activity against Pseudomonas aeruginosa isolate 341 after 24 hrs by CLSI microdilution method
Pseudomonas aeruginosa [19] = experiment: Antibacterial activity against Pseudomonas aeruginosa isolate 344 after 24 hrs by CLSI microdilution method
Pseudomonas aeruginosa [20] = experiment: Antibacterial activity against Pseudomonas aeruginosa isolate 345 after 24 hrs by CLSI microdilution method
Pseudomonas aeruginosa [21] = experiment: Antibacterial activity against Pseudomonas aeruginosa isolate 346 after 24 hrs by CLSI microdilution method
Pseudomonas aeruginosa [22] = experiment: Antibacterial activity against Pseudomonas aeruginosa isolate 348 after 24 hrs by CLSI microdilution method
Pseudomonas aeruginosa [23] = experiment: Antibacterial activity against Pseudomonas aeruginosa isolate 350 after 24 hrs by CLSI microdilution method
Pseudomonas aeruginosa [24] = experiment: Antibacterial activity against Pseudomonas aeruginosa isolate 352 after 24 hrs by CLSI microdilution method
Pseudomonas aeruginosa [25] = experiment: Antibacterial activity against Pseudomonas aeruginosa isolate 353 after 24 hrs by CLSI microdilution method
Pseudomonas aeruginosa [26] = experiment: Antibacterial activity against Pseudomonas aeruginosa isolate 354 after 24 hrs by CLSI microdilution method
Pseudomonas aeruginosa [27] = experiment: Antibacterial activity against Pseudomonas aeruginosa isolate 355 after 24 hrs by CLSI microdilution method
Pseudomonas aeruginosa [28] = experiment: Antibacterial activity against Pseudomonas aeruginosa isolate 356 after 24 hrs by CLSI microdilution method
Pseudomonas aeruginosa [29] = experiment: Antibacterial activity against Pseudomonas aeruginosa isolate 358 after 24 hrs by CLSI microdilution method
Pseudomonas aeruginosa [30] = experiment: Antibacterial activity against Pseudomonas aeruginosa isolate 359 after 24 hrs by CLSI microdilution method
Pseudomonas aeruginosa [31] = experiment: Antibacterial activity against Pseudomonas aeruginosa isolate 360 after 24 hrs by CLSI microdilution method
Pseudomonas aeruginosa [32] = experiment: Antibacterial activity against Pseudomonas aeruginosa isolate 363 after 24 hrs by CLSI microdilution method
Pseudomonas aeruginosa [33] = experiment: Antibacterial activity against Pseudomonas aeruginosa isolate 365 after 24 hrs by CLSI microdilution method
Pseudomonas aeruginosa [34] = experiment: Antibacterial activity against Pseudomonas aeruginosa isolate 366 after 24 hrs by CLSI microdilution method
Pseudomonas aeruginosa [35] = experiment: Antibacterial activity against Pseudomonas aeruginosa isolate 367 after 24 hrs by CLSI microdilution method
Pseudomonas aeruginosa [36] = experiment: Antibacterial activity against Pseudomonas aeruginosa isolate 369 after 24 hrs by CLSI microdilution method
Pseudomonas aeruginosa [37] = experiment: Antibacterial activity against Pseudomonas aeruginosa isolate 370 after 24 hrs by CLSI microdilution method
Pseudomonas aeruginosa [38] = experiment: Antibacterial activity against Pseudomonas aeruginosa isolate 371 after 24 hrs by CLSI microdilution method
Pseudomonas aeruginosa [39] = experiment: Antibacterial activity against Pseudomonas aeruginosa isolate 373 after 24 hrs by CLSI microdilution method
Pseudomonas aeruginosa [40] = experiment: Antibacterial activity against Pseudomonas aeruginosa isolate 375 after 24 hrs by CLSI microdilution method
Pseudomonas aeruginosa [41] = experiment: Antibacterial activity against Pseudomonas aeruginosa isolate 379 expressing VIM2 beta-lactamase after 24 hrs by CLSI microdilution method
Acinetobacter baumannii [42] = experiment: Antibacterial activity against Acinetobacter baumannii isolate 883 after 24 hrs by CLSI microdilution method
Acinetobacter baumannii [43] = experiment: Antibacterial activity against Acinetobacter baumannii isolate 884 after 24 hrs by CLSI microdilution method
Acinetobacter baumannii [44] = experiment: Antibacterial activity against Acinetobacter baumannii isolate 885 after 24 hrs by CLSI microdilution method
Acinetobacter baumannii [45] = experiment: Antibacterial activity against Acinetobacter baumannii isolate 888 after 24 hrs by CLSI microdilution method
Acinetobacter baumannii [46] = experiment: Antibacterial activity against Acinetobacter baumannii isolate 894 after 24 hrs by CLSI microdilution method
Acinetobacter baumannii [47] = experiment: Antibacterial activity against Acinetobacter baumannii isolate 896 after 24 hrs by CLSI microdilution method
Acinetobacter baumannii [48] = experiment: Antibacterial activity against Acinetobacter baumannii isolate 898 after 24 hrs by CLSI microdilution method
Acinetobacter baumannii [49] = experiment: Antibacterial activity against Acinetobacter baumannii isolate 900 after 24 hrs by CLSI microdilution method
Acinetobacter baumannii [50] = experiment: Antibacterial activity against Acinetobacter baumannii isolate 902 after 24 hrs by CLSI microdilution method
Acinetobacter baumannii [51] = experiment: Antibacterial activity against Acinetobacter baumannii isolate 907 after 24 hrs by CLSI microdilution method
Acinetobacter baumannii [52] = experiment: Antibacterial activity against Acinetobacter baumannii isolate 908 after 24 hrs by CLSI microdilution method
Acinetobacter baumannii [53] = experiment: Antibacterial activity against Acinetobacter baumannii isolate 909 after 24 hrs by CLSI microdilution method
Acinetobacter baumannii [54] = experiment: Antibacterial activity against Acinetobacter baumannii isolate 911 after 24 hrs by CLSI microdilution method
Acinetobacter baumannii [55] = experiment: Antibacterial activity against Acinetobacter baumannii isolate 912 after 24 hrs by CLSI microdilution method
Acinetobacter baumannii [56] = experiment: Antibacterial activity against Acinetobacter baumannii isolate 915 after 24 hrs by CLSI microdilution method
Acinetobacter baumannii [57] = experiment: Antibacterial activity against Acinetobacter baumannii isolate 923 after 24 hrs by CLSI microdilution method
Acinetobacter baumannii [58] = experiment: Antibacterial activity against Acinetobacter baumannii isolate 925 after 24 hrs by CLSI microdilution method
Acinetobacter baumannii [59] = experiment: Antibacterial activity against Acinetobacter baumannii isolate 926 after 24 hrs by CLSI microdilution method

Sequence COLISTIN has an MIC (Acinetobacter baumannii [1]) of 32 µg/mL, an MIC (Acinetobacter baumannii [2]) of 0.25 µg/mL and an MIC (Acinetobacter baumannii [3]) of 0.5 µg/mL. For the same sequence, the MIC (Acinetobacter baumannii [4]) was 8 µg/mL, the MIC (Acinetobacter baumannii [5]) was 4 µg/mL and the MIC (Acinetobacter baumannii [6]) was 8 µg/mL. For the same sequence, the MIC (Acinetobacter baumannii [7]) was 1 µg/mL, the MIC (Pseudomonas aeruginosa [8]) was 0.25 µg/mL and the MIC (Pseudomonas aeruginosa [9]) was 2 µg/mL. The MIC (Pseudomonas aeruginosa [10]) was 1 µg/mL, the MIC (Pseudomonas aeruginosa [11]) was 2 µg/mL and the MIC (Pseudomonas aeruginosa [12]) was 2 µg/mL. It also gave an MIC (Pseudomonas aeruginosa [13]) of 1 µg/mL, an MIC (Pseudomonas aeruginosa [14]) of 0.5 µg/mL and an MIC (Pseudomonas aeruginosa [15]) of 0.5 µg/mL. For the same sequence, the MIC (Pseudomonas aeruginosa [16]) was 1 µg/mL, the MIC (Pseudomonas aeruginosa [17]) was 1 µg/mL and the MIC (Pseudomonas aeruginosa [18]) was 0.5 µg/mL. The MIC (Pseudomonas aeruginosa [19]) was 0.5 µg/mL, the MIC (Pseudomonas aeruginosa [20]) was 1 µg/mL and the MIC (Pseudomonas aeruginosa [21]) was 2 µg/mL. For the same sequence, the MIC (Pseudomonas aeruginosa [22]) was 1 µg/mL, the MIC (Pseudomonas aeruginosa [23]) was 1 µg/mL and the MIC (Pseudomonas aeruginosa [24]) was 4 µg/mL. It also gave an MIC (Pseudomonas aeruginosa [25]) of 0.25 µg/mL, an MIC (Pseudomonas aeruginosa [26]) of 0.5 µg/mL and an MIC (Pseudomonas aeruginosa [27]) of 1 µg/mL. For the same sequence, the MIC (Pseudomonas aeruginosa [28]) was 1 µg/mL, the MIC (Pseudomonas aeruginosa [29]) was 1 µg/mL and the MIC (Pseudomonas aeruginosa [30]) was 0.5 µg/mL. For the same sequence, the MIC (Pseudomonas aeruginosa [31]) was 1 µg/mL, the MIC (Pseudomonas aeruginosa [32]) was 0.25 µg/mL and the MIC (Pseudomonas aeruginosa [33]) was 2 µg/mL. The MIC (Pseudomonas aeruginosa [34]) was 0.5 µg/mL, the MIC (Pseudomonas aeruginosa [35]) was 0.5 µg/mL and the MIC (Pseudomonas aeruginosa [36]) was 2 µg/mL. It also gave an MIC (Pseudomonas aeruginosa [37]) of 2 µg/mL, an MIC (Pseudomonas aeruginosa [38]) of 1 µg/mL and an MIC (Pseudomonas aeruginosa [39]) of 1 µg/mL. For the same sequence, the MIC (Pseudomonas aeruginosa [40]) was 0.5 µg/mL, the MIC (Pseudomonas aeruginosa [41]) was 1 µg/mL and the MIC (Acinetobacter baumannii [42]) was 32 µg/mL. It also gave an MIC (Acinetobacter baumannii [43]) of 2 µg/mL, an MIC (Acinetobacter baumannii [44]) of 2 µg/mL and an MIC (Acinetobacter baumannii [45]) of 4 µg/mL. It also gave an MIC (Acinetobacter baumannii [46]) of 1 µg/mL, an MIC (Acinetobacter baumannii [47]) of 2 µg/mL and an MIC (Acinetobacter baumannii [48]) of 1 µg/mL. The MIC (Acinetobacter baumannii [49]) was 2 µg/mL, the MIC (Acinetobacter baumannii [50]) was 2 µg/mL and the MIC (Acinetobacter baumannii [51]) was 1 µg/mL. The MIC (Acinetobacter baumannii [52]) was 0.5 µg/mL, the MIC (Acinetobacter baumannii [53]) was 1 µg/mL and the MIC (Acinetobacter baumannii [54]) was 8 µg/mL. For the same sequence, the MIC (Acinetobacter baumannii [55]) was 0.5 µg/mL, the MIC (Acinetobacter baumannii [56]) was 1 µg/mL and the MIC (Acinetobacter baumannii [57]) was 4 µg/mL. For the same sequence, the MIC (Acinetobacter baumannii [58]) was 16 µg/mL and the MIC (Acinetobacter baumannii [59]) was 2 µg/mL.
